# Data published in ChEMBL document CHEMBL1130226, “2,4-Diaminothieno[2,3-d]pyrimidine lipophilic antifolates as inhibitors of Pneumocystis carinii and Toxoplasma gondii dihydrofolate reductase” (J Med Chem, 1997).
# pIC50: −log10 of the molar value.
# How the values were obtained:
# Dihydrofolate reductase [1] = molecular target: T1, Dihydrofolate reductase (Rattus norvegicus, UniProt Q920D2)
# T1 sequence (Q920D2 whole entry): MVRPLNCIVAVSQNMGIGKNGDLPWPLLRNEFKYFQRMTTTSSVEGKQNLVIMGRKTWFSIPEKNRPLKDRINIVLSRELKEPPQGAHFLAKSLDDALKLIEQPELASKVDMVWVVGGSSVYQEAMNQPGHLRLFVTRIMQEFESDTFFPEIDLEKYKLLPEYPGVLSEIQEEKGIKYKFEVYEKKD
# Description: Inhibition of rat liver Dihydrofolate Reductase
# [2] = molecular target: T2, Bifunctional dihydrofolate reductase-thymidylate synthase (Toxoplasma gondii, UniProt Q07422)
# T2 sequence (Q07422 whole entry): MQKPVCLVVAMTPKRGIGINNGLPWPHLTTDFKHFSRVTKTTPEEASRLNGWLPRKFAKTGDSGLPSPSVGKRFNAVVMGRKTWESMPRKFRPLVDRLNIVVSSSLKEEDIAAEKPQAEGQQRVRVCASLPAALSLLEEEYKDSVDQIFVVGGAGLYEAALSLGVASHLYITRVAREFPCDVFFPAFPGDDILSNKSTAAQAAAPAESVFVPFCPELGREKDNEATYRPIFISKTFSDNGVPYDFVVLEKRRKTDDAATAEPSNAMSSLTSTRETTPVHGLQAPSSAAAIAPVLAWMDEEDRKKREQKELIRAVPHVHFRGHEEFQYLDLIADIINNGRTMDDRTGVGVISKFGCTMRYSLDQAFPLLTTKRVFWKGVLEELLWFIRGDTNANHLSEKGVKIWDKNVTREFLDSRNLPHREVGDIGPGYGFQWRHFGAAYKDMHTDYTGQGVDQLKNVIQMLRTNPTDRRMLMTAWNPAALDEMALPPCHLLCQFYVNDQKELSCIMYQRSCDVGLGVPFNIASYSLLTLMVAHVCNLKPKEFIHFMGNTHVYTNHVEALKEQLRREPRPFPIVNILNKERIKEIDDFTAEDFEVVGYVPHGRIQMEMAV
# Description: Inhibition of Toxoplasma gondii Dihydrofolate Reductase
# Dihydrofolate reductase [3] = molecular target: T3, Dihydrofolate reductase (Pneumocystis carinii, UniProt P16184)
# T3 sequence (P16184 whole entry): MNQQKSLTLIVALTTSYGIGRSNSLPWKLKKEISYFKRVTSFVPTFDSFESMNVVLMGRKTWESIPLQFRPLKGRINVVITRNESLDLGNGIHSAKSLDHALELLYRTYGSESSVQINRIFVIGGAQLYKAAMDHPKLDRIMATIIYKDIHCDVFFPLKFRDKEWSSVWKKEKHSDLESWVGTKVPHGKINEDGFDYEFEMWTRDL
# Description: Inhibition of Pneumocystis carinii Dihydrofolate Reductase
# [4] = Selectivity ratio of IC50 (rat liver)/IC50 (Toxoplasma gondii
# [5] = Selectivity ratio of IC50 (rat liver)/IC50 (Pneumocystis carinii)
SMILES,pIC50 (Dihydrofolate reductase [1]),pIC50 [2],pIC50 (Dihydrofolate reductase [3]),Selectivity ratio [4],Selectivity ratio [5]
COc1ccc(OC)c(NCc2c(Br)sc3nc(N)nc(N)c23)c1,4.48,< 4.00,< 4.00,–,–
COc1cc(Cc2cnc(N)nc2N)cc(OC)c1Br [BRODIMOPRIM],7.82,7.77,7.51,0.088,0.048
Nc1nc(N)c2c(CNc3cc(Cl)c(-n4cccc4)c(Cl)c3)c(Br)sc2n1,5.00,4.59,5.12,0.39,1.4
COc1ccc(OC)c(N(C)Cc2c(Br)sc3nc(N)nc(N)c23)c1,< 5.00,< 5.00,< 5.00,–,–
COc1cc(N(C)Cc2c(Br)sc3nc(N)nc(N)c23)cc(OC)c1OC,4.55,3.90,4.51,–,0.88
COc1cc(NCc2c(Br)sc3nc(N)nc(N)c23)cc(OC)c1OC,4.77,4.47,4.89,–,1.2
